Paper PMC8587047, “Synthesis and Biological Evaluation of Harmirins, Novel Harmine–Coumarin Hybrids as Potential Anticancer Agents” (Molecules, 2021)

Key:
HEK293T = assay: MTT cytotoxicity assay, HEK293T (non-cancer); type: cell-based, human; conditions: for IC50: Homo sapiens, HEK-293T, MTT, 72 h, mean ± SD, non-cancer cell line, read-out: IC50 Hek293T
Source text: (§1) We selected four different cancer cell lines for antiproliferative screening in vitro, which we believed would provide sufficient data on the anticancer potential of the prepared harmirins (hepatocellular carcinoma—HepG2, colorectal adenocarcinoma, Dukes’ type C—SW620, colorectal carcinoma—HCT116, and breast adenocarcinoma—MCF-7). Additionally, we included one non-cancer cell line (embryonic kidney—HEK293T) to evaluate harmirins’ selectivity. The commonly used anticancer drug 5-FU and harmine were used as positive controls. Pre-screening was performed using 50 µM of the tested compound. Only compounds that led to more than 50% reduction in mitochondrial metabolic activity at 50 µM concentration were selected for further analysis. The selectivity index (SI) for each harmirin was calculated as a fractional ratio between the IC50 values for HEK293T and the cancer cell line MCF-7 or HCT116 since these two cell lines were the most susceptible to harmirins.
(§2) The experiments were carried out on five human cell lines purchased from American Type Culture Collection (ATCC, PO BOX 1549, manassas, VA 20108, USA): HepG2 (hepatocellular carcinoma; ATCC® HB-8065™), SW620 (colorectal adenocarcinoma; ATCC® CCL-227™), HCT116 (colorectal carcinoma ATCC® CCL-247™), MCF-7 (breast adenocarcinoma, ATCC® HTB-22™), and HEK293T (embryonic kidney cells; ATCC® CRL-3216™). All cell lines were cultured as monolayers and maintained in Dulbecco’s modified Eagle medium (DMEM) (Capricorn Scientific, USA), supplemented with 10% fetal bovine serum (FBS) (Capricorn Scientific, USA), 100 U/mL penicillin, and 100 µg/mL streptomycin (Capricorn Scientific, USA) in a humidified atmosphere with 5% CO2 at 37 °C. Cells were seeded in 96-well plates (Corning, Durham, NC, USA) at 5000–7000 cells per well (depending on the cell doubling time of a specific cell line) in 0.1 mL media and cultured for 24 h. The next day, the medium was aspirated, and cells were treated for 72 h. Only the compounds that led to more than a 50% reduction in mitochondrial metabolic activity at a concentration of 50 µM were selected for further analysis. The following concentrations of selected compounds were used: 25, 10, 5, and 1 µM. Working dilutions were freshly prepared on the day of the testing. A fresh growth medium was added to untreated control cells, which were defined as 100% viable. DMSO (0.13%) in DMEM was considered a negative control. 5-Fluorouracil (5-FU) and harmine were used as positive controls. At the end of treatment, media was removed, and cells were incubated for 1 h with 0.5 mg/mL MTT (Abcam, Cambridge, MA, USA) dissolved in serum-deprived DMEM. The absorbance was directly proportional to cell viability. The MTT-containing media was then removed, and 0.1 mL isopropanol was added per well to lyse cells and dissolve formazan. The optical density was measured at 570 nm using a microplate reader (VICTOR3, PerkinElmer). Each test point was performed in triplicate. The IC50 values (concentration required to decrease viability by 50%) were calculated by using nonlinear regression on the sigmoidal dose–response plots and are expressed as mean ± SD.

HCT116 = assay: MTT cytotoxicity assay, HCT116; type: cell-based, human; conditions: for IC50: Homo sapiens, HCT-116, MTT, 72 h, mean ± SD, read-out: IC50 HCT116; for SI (HCT116): ratio IC50 HEK293T / IC50 HCT116
Source text: as §1, §2

SW620 = assay: MTT cytotoxicity assay, SW620; type: cell-based; conditions: Homo sapiens, SW-620; MTT, 72 h, mean ± SD; read-out: IC50 SW620
Source text: as §1, §2

MCF-7 = assay: MTT cytotoxicity assay, MCF-7; type: cell-based, human; conditions: for IC50: Homo sapiens, MCF7, MTT, 72 h, mean ± SD, read-out: IC50 MCF-7; for SI (MCF-7): ratio IC50 HEK293T / IC50 MCF-7
Source text: as §1, §2

HepG2 = assay: MTT cytotoxicity assay, HepG2; type: cell-based; conditions: Homo sapiens, HepG2; MTT, 72 h, mean ± SD; read-out: IC50 HepG2
Source text: as §1, §2

SMILES | IC50 (HEK293T) [µM] | IC50 (HCT116) [µM] | SI (HCT116) (HCT116) | melting point | IC50 (SW620) [µM] | IC50 (MCF-7) [µM] | SI (MCF-7) (MCF-7) | IC50 (HepG2) [µM] | activity against MCF-7, fold stronger than 5-FU (MCF-7; compared with 5-FU IC50) | activity against MCF-7, fold higher than harmine (MCF-7; compared with harmine IC50) | SIs (selectivity towards cancer cells in comparison to HEK293T) (HEK293T; cancer cell line not specified (MCF-7 or HCT116))
O=c1cc(OCc2cn(Cc3nccc4c3[nH]c3ccccc34)nn2)c2cc(F)ccc2o1 [4d, 4-((1-((9H-Pyrido[3,4-b]indol-1-yl)methyl)-1H-1,2,3-triazol-4-yl)methoxy)-6-fluoro-2H-chromen-2-one] | 45.8 ± 0.2 | 33.1 ± 7.7 | 1.4 | 239.5 to 241 °C (dec.) | > 50 | > 50 | <0.9 | > 50 | – | – | –
O=c1cc(OCc2cn(Cc3nccc4c3[nH]c3ccccc34)nn2)c2cc(Cl)ccc2o1 [4c, 4-((1-((9H-Pyrido[3,4-b]indol-1-yl)methyl)-1H-1,2,3-triazol-4-yl)methoxy)-6-chloro-2H-chromen-2-one] | > 50 | > 50 | >1 | 263.5 to 265 °C (dec.) | > 50 | 39.1 ± 3.6 | >1.3 | > 50 | – | – | –
Cc1nc(Cn2cc(COc3cc(=O)oc4ccccc34)nn2)cc2c1[nH]c1ccccc12 [5a, 4-((1-((1-Methyl-9H-pyrido[3,4-b]indol-3-yl)methyl)-1H-1,2,3-triazol-4-yl)methoxy)-2H-chromen-2-one] | 6.5 ± 1.6 | > 50 | <0.1 | 149.5 to 153.5 °C (dec.) | > 50 | > 50 | <0.1 | 17.8 ± 1.8 | – | – | –
COc1ccc2c3ccnc(C)c3n(Cc3cn(-c4cc(=O)oc5ccc(Cl)cc45)nn3)c2c1 [13c, 6-Chloro-4-(4-((7-methoxy-1-methyl-9H-pyrido[3,4-b]indol-9-yl)methyl)-1H-1,2,3-triazol-1-yl)-2H-chromen-2-one] | > 50 | 34.4 ± 3.3 | >1.5 | 233 to 239.5 °C (dec.) | > 50 | 32 ± 1.9 | >1.6 | > 50 | – | – | –
Cc1nccc2c1[nH]c1cc(OCc3cn(-c4cc(=O)oc5ccc(F)cc45)nn3)ccc12 [12d, 6-Fluoro-4-(4-(((1-methyl-9H-pyrido[3,4-b]indol-7-yl)oxy)methyl)-1H-1,2,3-triazol-1-yl)-2H-chromen-2-one] | > 50 | > 50 | >1 | 249 to 251 °C (dec.) | > 50 | > 50 | >1 | > 50 | – | – | –
Cc1nccc2c1[nH]c1cc(OCc3cn(-c4cc(=O)oc5ccccc45)nn3)ccc12 [12a, 4-(4-(((1-Methyl-9H-pyrido[3,4-b]indol-7-yl)oxy)methyl)-1H-1,2,3-triazol-1-yl)-2H-chromen-2-one] | 14.7 ± 0.8 | 10 ± 3.4 | 1.5 | – | 30 ± 3.5 | 21.6 ± 3.7 | 0.7 | 19.8 ± 1.1 | – | – | –
Cc1nc(Cn2cc(COc3cc(=O)oc4ccc(F)cc34)nn2)cc2c1[nH]c1ccccc12 [5d, 6-Fluoro-4-((1-((1-methyl-9H-pyrido[3,4-b]indol-3-yl)methyl)-1H-1,2,3-triazol-4-yl)methoxy)-2H-chromen-2-one] | 7 ± 1.6 | > 50 | <0.1 | 259 to 261.5 °C (dec.) | > 50 | – | <0.1 | > 50 | – | – | –
COc1ccc2c3ccnc(C)c3n(Cc3cn(-c4cc(=O)oc5ccc(F)cc45)nn3)c2c1 [13d, 6-Fluoro-4-(4-((7-methoxy-1-methyl-9H-pyrido[3,4-b]indol-9-yl)methyl)-1H-1,2,3-triazol-1-yl)-2H-chromen-2-one] | 3.9 ± 0.3 | 12.7 ± 0.6 | 0.3 | 235 to 237 °C (dec.) | 3.3 ± 0.4 | 2.7 ± 0.5 | 1.5 | 3.1 ± 0.5 | 9–13 fold | 5–7 fold | –
Cc1ccc2oc(=O)cc(-n3cc(COc4ccc5[nH]c6c(C)nccc6c5c4)nn3)c2c1 [11b, 6-Methyl-4-(4-(((1-methyl-9H-pyrido[3,4-b]indol-6-yl)oxy)methyl)-1H-1,2,3-triazol-1-yl)-2H-chromen-2-one] | 21.3 ± 4.1 | > 50 | <0.4 | 235 to 242 °C (dec.) | > 50 | 10.4 ± 0.8 | 2 | 13.6 ± 0.8 | – | – | –
Cc1nccc2c1[nH]c1ccc(OCc3cn(-c4cc(=O)oc5ccc(Cl)cc45)nn3)cc12 [11c, 6-Chloro-4-(4-(((1-methyl-9H-pyrido[3,4-b]indol-6-yl)oxy)methyl)-1H-1,2,3-triazol-1-yl)-2H-chromen-2-one] | 12.2 ± 1 | 15.5 ± 4.4 | 0.8 | 220 to 225 °C (dec.) | 30.3 ± 3.9 | 13.3 ± 1.5 | 0.9 | 14 ± 1.2 | – | – | –
O=c1cc(OCc2cn(Cc3nccc4c3[nH]c3ccccc34)nn2)c2ccccc2o1 [4a, 4-((1-((9H-Pyrido[3,4-b]indol-1-yl)methyl)-1H-1,2,3-triazol-4-yl)methoxy)-2H-chromen-2-one] | > 50 | > 50 | >1 | 260.5 to 264 °C (dec.) | > 50 | > 50 | >1 | 29.5 ± 3.5 | – | – | –
Cc1ccc2oc(=O)cc(OCc3cn(Cc4cc5c([nH]c6ccccc65)c(C)n4)nn3)c2c1 [5b, 6-Methyl-4-((1-((1-methyl-9H-pyrido[3,4-b]indol-3-yl)methyl)-1H-1,2,3-triazol-4-yl)methoxy)-2H-chromen-2-one] | 27.3 ± 2.1 | 3.2 ± 0.5 | 8.6 | 263 to 267.5 °C (dec.) | > 50 | > 50 | <0.6 | 16.8 ± 1.4 | – | – | > 7.2
Cc1nccc2c1[nH]c1cc(OCc3cn(-c4cc(=O)oc5ccc(Cl)cc45)nn3)ccc12 [12c, 6-Chloro-4-(4-(((1-methyl-9H-pyrido[3,4-b]indol-7-yl)oxy)methyl)-1H-1,2,3-triazol-1-yl)-2H-chromen-2-one] | 46.2 ± 4.7 | 37.6 ± 6.9 | 1.2 | 244 to 247 °C (dec.) | > 50 | 38.2 ± 2.5 | 1.2 | > 50 | – | – | –
O=c1[nH]cc(F)c(=O)[nH]1 [5-FU, 5-fluorouracil, reference compound] | 8.1 ± 0.8 | 5.2 ± 2.8 | 1.6 | – | 9.4 ± 0.3 | 23.9 ± 5.7 | 0.3 | 5.5 ± 0.6 | – | – | –
Cc1nc(Cn2cc(COc3cc(=O)oc4ccc(Cl)cc34)nn2)cc2c1[nH]c1ccccc12 [5c, 6-Chloro-4-((1-((1-methyl-9H-pyrido[3,4-b]indol-3-yl)methyl)-1H-1,2,3-triazol-4-yl)methoxy)-2H-chromen-2-one] | 8.5 ± 0.3 | 7.1 ± 0.7 | 1.2 | 254 to 257.5 °C (dec.) | > 50 | 15 ± 1.3 | 0.6 | 18.5 ± 2.3 | – | – | –
